Results on four molecules are retold here after patent publication US20180201592A1, “2-AMINO-1,3,4-THIADIAZINE AND 2-AMINO-1,3,4-OXADIAZINE BASED ANTIFUNGAL AGENTS” (F2G Limited, priority 2015, published 2018).

Settings in all cases: banded MIC grade
In assay [1] the test system is A. terreus 49. In words: Minimum inhibitory concentration, YAG medium. Format: cell-based, Aspergillus terreus. In a few lines:
(§1)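 MIC values (mg/L) were derived from well optical density at 485 nm. Plates with Aspergillus spores and doubling aqueous dilutions of compound (5 mg/mL DMSO stock) had been incubated at 35° C for 24 hrs.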

In another assay the test system is A. flavus. In words: Minimum inhibitory concentration, RPMI medium. Format: cell-based. In a few lines: (§2)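 Thawed 5 mg/mL DMSO stocks are vortexed, diluted into sterile water and serially halved in water. The MIC test is then run in RPMI 1640 at 35° C for 24-48 hrs. Wells are read at OD 485 nm.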
A further assay has as its system C. tropicalis. The experiment in a line: Minimum inhibitory concentration, RPMI medium. Format: cell-based. In short, it runs like this:
as §2

Another assay deals with C. glabrata. In words: Minimum inhibitory concentration, RPMI medium. It is filed as cell-based. In a few lines: as §2
In assay [2] the test system is A. terreus 49. In words: Minimum inhibitory concentration, RPMI medium. Format: cell-based. In a few lines: as §2
The next assay has as its system C. albicans. The experiment in a line: Minimum inhibitory concentration, RPMI medium. It is filed as cell-based. In a few lines:
as §2

The subject of the next assay is A. terreus. The experiment in a line: Minimum inhibitory concentration, RPMI medium. Format: cell-based. In a few lines: as §2
The subject of another assay is A. niger. In words: Minimum inhibitory concentration, RPMI medium. It is filed as cell-based. In a few lines:
as §2

Another assay concerns C. parapsilosis. The experiment in a line: Minimum inhibitory concentration, RPMI medium. It is filed as cell-based. In short, it runs like this:
as §2

A further assay concerns C. krusei. The experiment in a line: Minimum inhibitory concentration, RPMI medium. It is filed as cell-based. In a few lines:
as §2

For the next assay, the system named is Aspergillus flavus. In words: Minimum inhibitory concentration, YAG medium. It is filed as cell-based. In short, it runs like this: as §1
The test system of the next assay is Aspergillus niger. The experiment in a line: Minimum inhibitory concentration, YAG medium. It is filed as cell-based. In short, it runs like this:
as §1

Another assay deals with Aspergillus terreus. The experiment in a line: Minimum inhibitory concentration, YAG medium. Format: cell-based. In a few lines:
as §1

For assay [3], the system named is A. fumigatus 210. In words: Minimum inhibitory concentration, YAG medium. Format: cell-based, Aspergillus fumigatus. In a few lines: (§3)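 Testing uses spores harvested after 5 days on Sabouraud agar, grown 24 hrs at 35° C in glucose/ammonium chloride/yeast extract (YAG) medium against twofold drug dilutions. Optical density at 485 nm defines MIC as >70% growth reduction compared with drug-free wells.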

Assay [4] has as its system A. fumigatus 210. The experiment in a line: Minimum inhibitory concentration, RPMI medium. Format: cell-based. In a few lines: (§4)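 Compound doubling dilutions were prepared from 5 mg/mL DMSO stock; fungus was diluted in RPMI 1640 with 2% glucose and 0.135 M MOPS (pH 7.0), giving inocula of 1-2×10^4 cfu/mL and drug range 50-0.05 mg/L. Plates ran 24-48 hrs at 35° C; MIC is the lowest concentration giving >80% growth inhibition by OD485 versus drug-free control.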

The next assay concerns A. fumigatus. The experiment in a line: Minimum inhibitory concentration, RPMI medium. Format: cell-based. In a few lines: as §4
The test system of the next assay is Aspergillus fumigatus. In words: Minimum inhibitory concentration, YAG medium. It is filed as cell-based. In short, it runs like this:
as §3

For the molecule `NC1=NN=C(CCCCOCc2cccc(C3CC3)c2)CS1`, in the assay on A. terreus 49 [1], the “MIC grade, A. TERREUS 49, YAG media” value is 3 (3: 0.2-1 mg/L). For the same molecule, in the assay on A. flavus, the “MIC grade, A. FLAVUS, RPMI media” value is 2 (2: 5-20 mg/L). For the same molecule, the “MIC grade, C. TROPICALIS, RPMI media” value against C. tropicalis is recorded as 4 (4: <1 mg/L). Besides, the “MIC grade, C. GLABRATA, RPMI media” value with C. glabrata is listed as 2 (2: 5-20 mg/L). Moreover, the “MIC grade, A. TERREUS 49, RPMI media” value with A. terreus 49 [2] was 2 (2: 5-20 mg/L). In the assay on C. albicans, the “MIC grade, C. ALBICANS, RPMI media” value was 4 (4: <1 mg/L). Further, the “MIC grade, A. TERREUS, RPMI media” value in the assay with A. terreus is 2 (2: 5-20 mg/L). Also, the “MIC grade, A. NIGER, RPMI media” value against A. niger is recorded as 2 (2: 5-20 mg/L). Also, in the assay on C. parapsilosis, the “MIC grade, C. PARAPSILOSIS, RPMI media” value is on record as 4 (4: <1 mg/L). For the same molecule, the “MIC grade, C. KRUSEI, RPMI media” value in the assay with C. krusei is on record as 4 (4: <1 mg/L). For the same molecule, in the assay with Aspergillus flavus, the “MIC grade, A. FLAVUS, YAG media” value is reported as 3 (3: 0.2-1 mg/L). Also, in the assay on Aspergillus niger, the “MIC grade, A. NIGER, YAG media” value is recorded as 3 (3: 0.2-1 mg/L). Further, the “MIC grade, A. TERREUS, YAG media” value against Aspergillus terreus is recorded as 3 (3: 0.2-1 mg/L). Moreover, the “MIC grade, A. FUMIGATUS 210, YAG media” value with A. fumigatus 210 [3] was 3 (3: 0.2-1 mg/L). Moreover, the “MIC grade, A. FUMIGATUS 210, RPMI media” value in the assay with A. fumigatus 210 [4] is on record as 2 (2: 5-20 mg/L). Besides, the “MIC grade, A. FUMIGATUS, RPMI media” value in the assay with A. fumigatus is listed as 3 (3: 1-5 mg/L). The “MIC grade, A. FUMIGATUS, YAG media” value in the assay with Aspergillus fumigatus is recorded as 3 (3: 0.2-1 mg/L).
Turning to `NC1=NN=C(CCCCOCc2cccc(Oc3ccccc3)c2)CS1`, the “MIC grade, A. TERREUS 49, YAG media” value against A. terreus 49 [1] was 1 (1: ≥5 mg/L). Moreover, in the assay with A. flavus, the “MIC grade, A. FLAVUS, RPMI media” value is given as 1 (1: ≥20 mg/L). Besides, the “MIC grade, C. TROPICALIS, RPMI media” value in the assay with C. tropicalis is on record as 3 (3: 1-5 mg/L). Further, in the assay with C. glabrata, the “MIC grade, C. GLABRATA, RPMI media” value was 1 (1: ≥20 mg/L). For the same molecule, the “MIC grade, A. TERREUS 49, RPMI media” value in the assay with A. terreus 49 [2] was 1 (1: ≥20 mg/L). Besides, the “MIC grade, C. ALBICANS, RPMI media” value against C. albicans is recorded as 3 (3: 1-5 mg/L). In addition, the “MIC grade, A. TERREUS, RPMI media” value in the assay on A. terreus is listed as 1 (1: ≥20 mg/L). Also, the “MIC grade, A. NIGER, RPMI media” value with A. niger is given as 1 (1: ≥20 mg/L). Moreover, the “MIC grade, C. PARAPSILOSIS, RPMI media” value in the assay on C. parapsilosis is reported as 3 (3: 1-5 mg/L). The “MIC grade, C. KRUSEI, RPMI media” value in the assay with C. krusei was 3 (3: 1-5 mg/L). In addition, the “MIC grade, A. FLAVUS, YAG media” value against Aspergillus flavus is recorded as 2 (2: 1-5 mg/L). Moreover, in the assay on Aspergillus niger, the “MIC grade, A. NIGER, YAG media” value was 2 (2: 1-5 mg/L). For the same molecule, the “MIC grade, A. TERREUS, YAG media” value against Aspergillus terreus was 1 (1: ≥5 mg/L). In addition, the “MIC grade, A. FUMIGATUS 210, YAG media” value against A. fumigatus 210 [3] was 1 (1: ≥5 mg/L). In addition, the “MIC grade, A. FUMIGATUS 210, RPMI media” value against A. fumigatus 210 [4] is listed as 1 (1: ≥20 mg/L). Also, in the assay with A. fumigatus, the “MIC grade, A. FUMIGATUS, RPMI media” value is on record as 1 (1: ≥20 mg/L). The “MIC grade, A. FUMIGATUS, YAG media” value in the assay on Aspergillus fumigatus is 1 (1: ≥5 mg/L).
Regarding `NC1=NN=C(CCCCOCc2cc(F)cc(F)c2)CS1`, in the assay on A. terreus 49 [1], the “MIC grade, A. TERREUS 49, YAG media” value is on record as 4 (4: <0.2 mg/L). In the assay with A. flavus, the “MIC grade, A. FLAVUS, RPMI media” value is on record as 3 (3: 1-5 mg/L). Also, in the assay on C. tropicalis, the “MIC grade, C. TROPICALIS, RPMI media” value is on record as 4 (4: <1 mg/L). Besides, the “MIC grade, C. GLABRATA, RPMI media” value in the assay on C. glabrata is 3 (3: 1-5 mg/L). Also, in the assay on A. terreus 49 [2], the “MIC grade, A. TERREUS 49, RPMI media” value is on record as 3 (3: 1-5 mg/L). The “MIC grade, C. ALBICANS, RPMI media” value against C. albicans is 4 (4: <1 mg/L). Also, the “MIC grade, A. TERREUS, RPMI media” value against A. terreus is 3 (3: 1-5 mg/L). In addition, the “MIC grade, A. NIGER, RPMI media” value against A. niger is recorded as 3 (3: 1-5 mg/L). The “MIC grade, C. PARAPSILOSIS, RPMI media” value against C. parapsilosis is recorded as 4 (4: <1 mg/L). The “MIC grade, C. KRUSEI, RPMI media” value in the assay with C. krusei is 4 (4: <1 mg/L). In the assay on Aspergillus flavus, the “MIC grade, A. FLAVUS, YAG media” value is 4 (4: <0.2 mg/L). The “MIC grade, A. NIGER, YAG media” value with Aspergillus niger was 4 (4: <0.2 mg/L). In addition, the “MIC grade, A. TERREUS, YAG media” value in the assay on Aspergillus terreus is 4 (4: <0.2 mg/L). For the same molecule, the “MIC grade, A. FUMIGATUS 210, YAG media” value against A. fumigatus 210 [3] is reported as 4 (4: <0.2 mg/L). For the same molecule, the “MIC grade, A. FUMIGATUS 210, RPMI media” value with A. fumigatus 210 [4] is 2 (2: 5-20 mg/L). The “MIC grade, A. FUMIGATUS, RPMI media” value in the assay with A. fumigatus is on record as 4 (4: <1 mg/L). Also, the “MIC grade, A. FUMIGATUS, YAG media” value against Aspergillus fumigatus is listed as 4 (4: <0.2 mg/L).
On to `NC1=NN=C(CCCCOCc2ccc(Cl)c(F)c2)CS1`, for which the “MIC grade, A. TERREUS 49, YAG media” value in the assay on A. terreus 49 [1] was 4 (4: <0.2 mg/L). In addition, in the assay on A. flavus, the “MIC grade, A. FLAVUS, RPMI media” value was 4 (4: <1 mg/L). For the same molecule, the “MIC grade, C. TROPICALIS, RPMI media” value in the assay with C. tropicalis was 4 (4: <1 mg/L). In addition, in the assay with C. glabrata, the “MIC grade, C. GLABRATA, RPMI media” value was 4 (4: <1 mg/L). The “MIC grade, A. TERREUS 49, RPMI media” value in the assay on A. terreus 49 [2] is 3 (3: 1-5 mg/L). For the same molecule, in the assay on C. albicans, the “MIC grade, C. ALBICANS, RPMI media” value is reported as 4 (4: <1 mg/L). Besides, the “MIC grade, A. TERREUS, RPMI media” value in the assay on A. terreus was 3 (3: 1-5 mg/L). Besides, the “MIC grade, A. NIGER, RPMI media” value against A. niger is given as 4 (4: <1 mg/L). Moreover, in the assay on C. parapsilosis, the “MIC grade, C. PARAPSILOSIS, RPMI media” value is 4 (4: <1 mg/L). Further, in the assay with C. krusei, the “MIC grade, C. KRUSEI, RPMI media” value is 4 (4: <1 mg/L). The “MIC grade, A. FLAVUS, YAG media” value with Aspergillus flavus was 4 (4: <0.2 mg/L). In the assay with Aspergillus niger, the “MIC grade, A. NIGER, YAG media” value is recorded as 4 (4: <0.2 mg/L). The “MIC grade, A. TERREUS, YAG media” value with Aspergillus terreus is given as 4 (4: <0.2 mg/L). Further, the “MIC grade, A. FUMIGATUS 210, YAG media” value against A. fumigatus 210 [3] was 4 (4: <0.2 mg/L). In addition, the “MIC grade, A. FUMIGATUS 210, RPMI media” value with A. fumigatus 210 [4] is given as 2 (2: 5-20 mg/L). Moreover, the “MIC grade, A. FUMIGATUS, RPMI media” value in the assay on A. fumigatus is listed as 4 (4: <1 mg/L). The “MIC grade, A. FUMIGATUS, YAG media” value with Aspergillus fumigatus is given as 4 (4: <0.2 mg/L).
